# “Also recorded” adds a separate entry of the source.
# Key:
# Type in all cases: cell-based
# [1] = molecular target: T1, OR10A6 (Homo sapiens, UniProt Q8NH74); test: Ca-imaging of OR10A6-transfected HEK293 cells; set-up: key to OR10A6 responded to odorant: ▪: 18 olfactory receptors responded to 32 odorants in related with specific anosmia; conditions: for OR10A6 responded to odorant: HEK293 cells, individual odorant 200 μM, significant response p<0.05
# T1 construct: specific primers, which amplify the complete open reading frame; expressed in transfected cells; host or cells: HEK293
# T1 sequence (Q8NH74 1-314): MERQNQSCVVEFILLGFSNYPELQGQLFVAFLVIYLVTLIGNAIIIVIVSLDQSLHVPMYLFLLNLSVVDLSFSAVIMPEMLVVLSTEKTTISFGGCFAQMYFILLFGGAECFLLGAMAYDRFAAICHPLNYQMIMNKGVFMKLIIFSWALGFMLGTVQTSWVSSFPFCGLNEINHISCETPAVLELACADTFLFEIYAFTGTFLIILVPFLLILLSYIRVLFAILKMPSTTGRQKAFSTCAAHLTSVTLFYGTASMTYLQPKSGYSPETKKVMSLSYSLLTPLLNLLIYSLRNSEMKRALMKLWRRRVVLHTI
# Experimental: (§1) HEK293 cells were cultivated in Petri dishes (Ø35 mm) as previously described (Benbernou et al. 2007). We grow up HEK293 cells in culture medium containing standard DMEM with 10% heat-inactivated fetal bovine serum, 2 mM L-glutamine, 100 units/ml penicillin, and 100 units/ml streptomycin in a humidified atmosphere (37° C., 5% CO2). After 2-3 days, the transfection process was carried out, whereby the cell culture was 70-80% confluent. The calciumphosphate method was applied to transfect DNA plasmid transiently in HEK293 cells in case of Ca-imaging method.
# (§2) Calcium cations and phosphate anions created crystal precipitations coupled with DNA which could invade into the cells through endocytosis. Cells were transiently transfected with plasmid DNA which consists of pCI expression vector and PCR-amplified full-length cDNA of olfactory receptors candidates, and also Gα15, RTP1, Myr-Ric8A, HSC70, and m-Cherry as cofactors. The precipitation could be created after 15-20 min, with dropping the transfection solution on HEK293 cells. Before measuring by Ca-imaging cells were incubated 48-60 hours at 370 C, 5% CO2. Cationic liposome-mediated transfection method was applied to transfect DNA plasmid transiently in HANA3A cells in case of CRE-Luciferase and CRE-SEAP assays.
# (§3) Calcium imaging of the transfected HEK293 cells was done by using chambers determinate an inverted microscope (Olympus; IX70) using a 10× objective (CPIanFL N Olympus). Fluorescence emission was determined every 4 s by using a CCD camera (Charge Coupled Device, C9100 Hamamatsu). The capillary tube which was responsible to supply odorants was generated closely above the cells. The columns filled with odorants, DMSO and ATP. Odorants were manually monitored to drop each 4-5 s to transfected cells. Solutions with drop wise form spread on HEK293 cells in 35 mm dishes.
# (§4) In experiments, Fura-2 Acetoxymethylester (Fura-2/AM) was applied. The non-polar Fura2/AM is fluorescent but not yet calcium-sensitive. Once diffuses into cell plasma, Fura-2/AM is hydrolyzed to Fura-2 which is calcium-sensitive and functions as Ca2+ chelator. Regardless of the presence of calcium, Fura-2 emits at the wavelength of 510 nm. Once Fura-2 binds to free intracellular Ca2+ in cell plasma, its ratio of excitation at wavelengths of 340 nm and 380 nm is changed and correlated to the amount of intracellular Ca2+. According to this feature, the analysis of 340/380 nm excitation ratio for Fura-2 allows to quantify intracellular calcium levels.
# (§5) In preparation for Ca-imaging measurements, transfected HEK293 cells were added 3 it Fura2/AM (3 μM) and incubated 30-45 min at 370 C, 5% CO2. After this step, experiments were carried out in a dark condition (Fura-2 is light-sensitive). After the incubation, medium of cell culture was replaced with 2 ml Ringer's solution.
# (§6) Odorants were freshly prepared with DMSO as 1 M stocks solutions. Six mixtures (200 μM each chemical) were applied to cells sequentially (20 s each mixture/30 s Ringer). Those ORs tested with single odorants that had generated a response to odorant mixture group previously. Odorants were prepared in 100-200 μM concentration.
# Ringer's solution was used for washing cells between measuring by two different odorants. Positive response was determined by the timing of the response, the strength of the response (more than twofold higher than the noise amplitude of the baseline), and the shape of the response curve (sharp rise in curve with gradual recovery). […]
# [2] = molecular target: T2, OR8B4 (Homo sapiens, UniProt Q96RC9); test: Ca-imaging of OR8B4-transfected HEK293 cells; conditions: Ca-imaging, single odorants 200 μM
# T2 construct: specific primers, which amplify the complete open reading frame; expressed in transfected cells; host or cells: HEK293
# T2 sequence (Q96RC9 1-309): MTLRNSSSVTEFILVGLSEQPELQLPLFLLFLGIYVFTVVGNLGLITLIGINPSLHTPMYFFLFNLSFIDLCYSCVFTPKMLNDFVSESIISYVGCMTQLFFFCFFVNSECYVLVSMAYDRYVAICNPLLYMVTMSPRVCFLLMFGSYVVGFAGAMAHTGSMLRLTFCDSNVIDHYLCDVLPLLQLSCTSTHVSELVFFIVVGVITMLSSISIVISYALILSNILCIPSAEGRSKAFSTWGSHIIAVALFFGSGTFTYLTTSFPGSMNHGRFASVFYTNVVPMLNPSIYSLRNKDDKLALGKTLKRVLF
# Experimental: as §1, §2, §3, §4, §5, §6
# (§7) Ringer's solution was used for washing cells between measuring by two different odorants. Positive response was determined by the timing of the response, the strength of the response (more than twofold higher than the noise amplitude of the baseline), and the shape of the response curve (sharp rise in curve with gradual recovery). The typical shape of response curves was established by observing responses to repeated stimulation with 200 μM of odorants. After testing with single odorants at 100 μM, stimulating odorants were often retested at 200 μM concentrations. To confirm the result of every receptor that produced a significant response curves, the experiment was repeated for twelve times. Finally, cells were exposed to ATP (0.25 mM) which could activate P2Y receptor channel and induce Ca2+ influx into cells. […]
# [3] = tested on: HEK293 cells transfected with all cofactors and pCI plasmids without ORs; test: Ca-imaging of control HEK293 cells without OR; conditions: odorant 200 μM, three times of measuring (Table 4, FIG. 5)
# Experimental: as §1, §2, §3, §4, §5, §6, §7
# [4] = molecular target: T3, OR8D2 (Homo sapiens, UniProt Q9GZM6); test: Ca-imaging of OR8D2-transfected HEK293 cells; set-up: key to OR8D2 responded to odorant: ▪: 18 olfactory receptors responded to 32 odorants in related with specific anosmia; conditions: for Number of cell responses, Experiment (OR8D2): odorant 200 μM, approximately 2000 transfected cells in three times of measuring (Table 4, FIG. 5)
# T3 construct: specific primers, which amplify the complete open reading frame; expressed in transfected cells; host or cells: HEK293
# T3 sequence (Q9GZM6 1-311): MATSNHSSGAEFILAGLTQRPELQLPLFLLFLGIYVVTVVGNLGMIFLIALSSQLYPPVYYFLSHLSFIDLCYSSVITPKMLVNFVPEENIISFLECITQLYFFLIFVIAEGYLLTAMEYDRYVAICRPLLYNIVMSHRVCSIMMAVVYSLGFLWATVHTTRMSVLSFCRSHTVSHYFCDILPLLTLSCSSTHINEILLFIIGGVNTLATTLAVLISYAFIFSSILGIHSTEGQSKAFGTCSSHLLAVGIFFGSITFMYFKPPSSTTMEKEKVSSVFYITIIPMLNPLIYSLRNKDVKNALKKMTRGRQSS
# Experimental: as §1, §2, §3, §4, §5, §6, §7
# [5] = molecular target: T4, OR2L8 (Homo sapiens, UniProt Q8NGY9); test: Ca-imaging of OR2L8-transfected HEK293 cells; set-up: key to OR2L8 responded to odorant: ▪: 18 olfactory receptors responded to 32 odorants in related with specific anosmia
# T4 construct: specific primers, which amplify the complete open reading frame; expressed in transfected cells; host or cells: HEK293
# T4 sequence (Q8NGY9 1-312): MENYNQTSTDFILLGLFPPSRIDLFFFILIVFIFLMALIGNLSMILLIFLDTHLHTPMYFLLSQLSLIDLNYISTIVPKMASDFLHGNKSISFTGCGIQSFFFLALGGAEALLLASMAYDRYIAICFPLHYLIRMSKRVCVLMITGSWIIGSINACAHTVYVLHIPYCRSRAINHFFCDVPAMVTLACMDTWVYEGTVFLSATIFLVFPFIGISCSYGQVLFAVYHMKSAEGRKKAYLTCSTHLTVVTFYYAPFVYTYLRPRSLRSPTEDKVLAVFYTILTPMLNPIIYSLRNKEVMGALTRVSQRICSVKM
# Experimental: as §1, §2, §3, §4, §5, §6, §7
# [6] = molecular target: T5, OR1B1 (Homo sapiens, UniProt Q8NGR6); test: Ca-imaging of OR1B1-transfected HEK293 cells; set-up: key to OR1B1 responded to odorant: ▪: 18 olfactory receptors responded to 32 odorants in related with specific anosmia; conditions: Ca-imaging
# T5 construct: specific primers, which amplify the complete open reading frame; expressed in transfected cells; host or cells: HEK293
# T5 sequence (Q8NGR6 1-317): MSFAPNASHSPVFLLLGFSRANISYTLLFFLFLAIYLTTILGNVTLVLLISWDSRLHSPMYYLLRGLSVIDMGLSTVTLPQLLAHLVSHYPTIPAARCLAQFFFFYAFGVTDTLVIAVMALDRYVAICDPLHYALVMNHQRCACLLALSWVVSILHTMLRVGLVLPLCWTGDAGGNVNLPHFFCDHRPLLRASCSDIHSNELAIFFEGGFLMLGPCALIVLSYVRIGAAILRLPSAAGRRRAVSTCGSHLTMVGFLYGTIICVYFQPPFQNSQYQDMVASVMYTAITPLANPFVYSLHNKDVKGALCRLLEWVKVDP
# Experimental: as §1, §2, §3, §4, §5, §6, §7
# [7] = Ca-imaging, HEK293 cells, individual odorant 200 μM, significant response p<0.05
# [8] = Ca-imaging, single odorants 200 μM
smiles,measurement,setting,value
"OC/C=C/c1ccccc1 [Cinamyl alcohol, Cinamylalcohol]",OR10A6 responded to odorant,[1],▪
"CC(C)(CO)Cc1ccccc1 [Muguet alcohol, Muguetalcohol]","Response of OR8B4 to odorant, in words",[2],activated
same,OR10A6 responded to odorant,[1],▪
same,"Response of OR10A6 to odorant, in words",[1]; single odorants 200 μM,detected
same,"Number of cell responses, Control",[3],0
same,OR8D2 responded to odorant,[4]; [7],▪
same,"Response of OR8D2 to odorant, in words",[4]; [8],significantly activated; also recorded: detected
same,"Number of cell responses, Experiment (OR8D2)",[4],21
CCCCCCCCO [Octanol],"Number of cell responses, Control",[3],0
same,"Number of cell responses, Experiment (OR8D2)",[4],9
"CCCC(O)CCC1C(C)CCCC1(C)C (centres unmarked) [Timbrol, Timberol]",OR2L8 responded to odorant,[5]; [7],▪
same,"Response of OR2L8 to odorant, in words",[5]; [8],Ca2+ concentration increased
same,"Number of cell responses, Experiment (OR2L8)","[5]; odorant 200 μM, approximately 2000 transfected cells in three times of measuring (Table 4, FIG. 5)",10
same,"Number of cell responses, Control",[3],1
"Cc1ccc2c(c1)OCC(=O)CO2 [calone, Calone]",OR1B1 responded to odorant,"[6]; HEK293 cells, individual odorant 200 μM, significant response p<0.05",▪
same,"Response of OR1B1 to odorant, in words",[6]; single odorants 200 μM,significantly (P<0.05) activated
same,"Number of cell responses, Control",[3],0

# — patent US9939427B2, “Method for evaluating the scent performance of perfumes or perfume mixtures” (Symrise AG, priority 2013, dated 2018)
